According to patent US20260206810A1, “NATURAL SWEETENER COMPOSITIONS AND USES THEREOF” (Firmenich SA, priority 2022, published 2026):
“And” between values parts separate entries of the source, which are not always exact repeats. Equal entries are not always repeated.

Assay: Visual assessment of sweetener solubilization (solution aspect) at room temperature
Type: physicochemical
Protocol: Unless otherwise stated, the inventive compositions of the examples were prepared according to the following general procedure. Solvent A, Solvent B (or mix of solvents B) and solvent C (or mix of solvents C) were mixed using a mechanical stirrer at room temperature (22° C.) to obtain a clear one-phase liquid. A solid natural sweetener in pure form or a blend of solid natural sweeteners was then added to the transparent solvent mixture and mechanically stirred. Mechanical stirring was maintained until the complete solubilization of the sweetener(s) at room temperature was observed. Comparative compositions were prepared analogously. The tables in the following examples summarize the components used in the inventive and comparative compositions.
Comparative and inventive compositions were prepared according to Table 1 below. The solubilization of the sweetener was assessed visually as a function of time. The stability of the concentrated solution (transparency of the solution) was also assessed visually at room temperature (22° C.) as a function of time.

Amount dispersed giving non-complete solubilization and a cloudy solution (binary mix ethanol/water 80/20, after 1 day at room temperature (22° C.)): 3 % wt | Amount dispersed giving non-complete solubilization and a cloudy solution (binary mix glycerol/water 80/20, after 1 day at room temperature (22° C.)): 2 % wt and 1 % wt | Amount dispersed giving non-complete solubilization and a cloudy solution (binary mix propylene glycol/glycerol 33/66, after 2 days at room temperature (22° C.)): 4.6 % wt | Amount of sweetener that was soluble (binary mix propylene glycol/glycerol 33/66, room temperature (22° C.)): 2.6 % wt | Amount dispersed giving non-complete solubilization and a cloudy solution (binary mix propylene glycol/glycerol 50/50, after 2 days at room temperature (22° C.)): 4.6 % wt | Amount of sweetener that was soluble (binary mix propylene glycol/glycerol 50/50, room temperature (22° C.)): 3.8 % wt | Amount dispersed giving non-complete solubilization and a cloudy solution (binary mix propylene glycol/water 80/20, after 2 days at room temperature (22° C.)): 11 % wt | Amount of sweetener that was soluble (binary mix propylene glycol/water 80/20, room temperature (22° C.)): 10 % wt | Amount of sweetener solubilized (glycerol/water 80/20 with 48% wt of glycerol replaced by ethanol): 12%
SMILES: C=C1C[C@@]23CC[C@H]4[C@@](C)(CCC[C@@]4(C)C(=O)O[C@@H]4O[C@H](CO)[C@@H](O)[C@H](O)[C@H]4O)[C@@H]2CC[C@]1(O[C@@H]1O[C@H](CO)[C@@H](O)[C@H](O[C@@H]2O[C@H](CO)[C@@H](O)[C@H](O)[C@H]2O)[C@H]1O[C@@H]1O[C@H](CO)[C@@H](O)[C@H](O)[C@H]1O)C3 [Reb A (99.5%), Rebaudioside A]
